Assay results reported in patent publication US20240293337A1, “USE OF DOXERCALCIFEROL TO TREAT AND/OR PREVENT UTERINE FIBROIDS OR POLYCYSTIC OVARY SYNDROME” (priority 2023, published 2024).

Assays:
[1] = test system: Human MSC derived adipocytes; assay: MSC derived adipocyte differentiation, 14 days, morphology and oil red-O staining; format: cell-based; details: 100 nM
Procedure: Human mesenchymal stem cells (MSC) are used as an in vitro cell culture model of adipocyte precursors to assess adipocyte differentiation. MSC cells are purchased from (Lonza). The cells are cultured in the DMEM/F12 media containing 10% FBS. At approximately 80% confluence, the cells are trypsinized using TrypLE select enzyme (Gibco, MA) and are serially expanded. At the end of the culture expansion, MSCs are collected and centrifuged at 300×g for 5 minutes. Human MSCs are treated with doxercalciferol and are cultured in adipocyte induction medium for 14 days. Mesenchymal Adipogenesis Kit (Sigma) and manufacturer's induction protocol are used for adipocyte induction. Imaging and morphology analysis is performed on days 1, 7, 10, and 14. On day 14 when adipocyte differentiation is completed, the cells undergo oil red-O staining and are imaged for further morphology analysis.

SW872 cells = assay: Obesity related cytokine antibody array of SW872 secretomes; format: cell-based, human; details: SW872 secretome, 10 nM, 24 hours
Procedure: SW872 cells are subcultured in T75 flasks for 24 hours. Cells are then treated for 24 hours with serum free basal media as a control or doxercalciferol at 1 nM, 10 nM, or 100 nM diluted in basal media (serum-free). After the incubation period, cells are imaged and analyzed for morphology and cell count. Cells are then collected for analysis of adipogenesis-related gene expression and cell culture media are collected for analysis of obesity related cytokines. Cell culture media are collected from SW872 cells after 24 hours of 10 nM doxercalciferol treatment. The media is analyzed for obesity related cytokines using a membrane-based antibody array (Ray Biotech, GA, USA) per the manufacturer's protocol, and then quantified using a multimode microplate reader system, Varioskan LUX Multimode Microplate Reader (Thermo Fisher).

H295R cells [2] = assay: H295R theca-like cells, cell morphology and cell number after 24 h treatment; format: cell-based, human; details: 100 nM
Procedure: Human adrenocortical-carcinoma cells (H295R cells) are used as an in vitro cell culture model of ovarian theca cells to assess androgen production. H295R cells are purchased from ATCC (Manassas, VA, USA, cat. no. ATCC® CRL-2128™) and cultured per the recommended guidelines. These cells are isolated from a donor. Briefly, H295R cells are cultured in flasks pre-coated with extracellular matrix (Gibco, USA, cat. no. S-006-100) with DMEM/F12 (Gibco, cat. no. 21041025) and 2.5% Nu-Serum (Corning, USA). The cells are subcultured at a ratio of 1:4, resulting in a cell density of approximately 3×10^6 in T75 flasks.
(§1) H295R cells are subcultured in T75 flasks for 24 hours. Cells are then treated for 24 hours with serum free basal media as a control or doxercalciferol at 1 nM, 10 nM, or 100 nM diluted in basal media (serum-free) at a 1:1 ratio. After the incubation period, cells are imaged and analyzed for morphology and cell count. Cells are then collected for analysis of steroidogenesis-related gene expression. Cell culture media are collected and used for testosterone quantification using ELISA based Testosterone Parameter Assay Kit (R&D system) per the manufacturer's protocol. The testosterone level is quantified using a multimode microplate reader system, Varioskan LUX Multimode Microplate Reader (Thermo Fisher).

H295R cells [3] = assay: Androgen producing gene expression in H295R cells (qPCR); format: cell-based, human; details: 24 hours
Procedure: as §1
RNA is extracted from H295R cells treated with doxercalciferol. RNA extraction is done using TRIzol (Invitrogen, USA) according to the manufacturer's instructions. The concentration and purity of the extracted RNA are checked using a NanoDrop spectrometer (Thermo Scientific, MA, USA). For qPCR of steroidogenesis related genes in H295R cells 1 μg of total RNA is reverse transcribed using RNA to cDNA EcoDry™ Premix (Double Primed) (Takara Bio USA Inc., CA, USA). The reaction mixture is incubated for 1 hour at 42° C.; incubation is stopped at 70° C. for 10 min. qPCR is performed using the CFX96 PCR instrument and SYBR Green Supermix (Bio-Rad, Hercules, CA, USA) with specific primers (RT^2 Profiler PCR Array for Human Adipogenesis, PAHS-049ZA, QIAGEN) to the target genes in a 20 μL final reaction volume. The delta-delta threshold cycle (ΔΔCt) method is used to calculate the fold change expression in mRNA level in the samples.

[4] = Serum chemistry in PCOS mice; format: in vivo, C57BL/6 mice; details: PCOS mice treated with doxercalciferol, n 7
Procedure: Five weeks after placebo or LTZ pellet implantation, mice undergo intraperitoneal injection of doxercalciferol (300 ng/kg) or saline 3 times per week for 6 weeks. Six weeks after doxercalciferol treatment, the mice are anesthetized and ovary, uterus, gonadal white fat, kidney, and liver tissue are collected. Each of these tissues are fixed in 4% paraformaldehyde for further histological analysis.
Blood is collected from all groups by cardiac exsanguination under isoflurane anesthesia: serum is separated and stored at −80° C. Serum chemistry analysis including BUN, ALT, ALP, AST, TBIL, calcium, TP, ALB, and NA+ is performed in University of Chicago Animal Resource Center (UC ARC) with VETSCAN® VS2 Chemistry Analyzer (Zoetis).

[5] = test system: patient derived xenograft (PDX) mouse model of uterine fibroids (UF); assay: Tumor growth in patient derived xenograft (PDX) mouse model of uterine fibroids; format: in vivo, NOD/SCID mice; details: PDX UF mice, 300 ng/kg i.p. 3 times per week, 6 weeks
Procedure: Female NOD/SCID are housed in a vivarium for 1 week under specific pathogen-free conditions. The animal experiment protocol for this study is approved, and all animal experiments are performed in compliance with policies and guidelines for use of laboratory animals. UF samples are obtained from African-American female patients with UF (n=4). This human UF tissue is xenografted into female mice that have been hormonally supplemented with progesterone and estradiol (n=2 mice/patient). Tumor size is measured at implantation. After xenograft mice undergo intraperitoneal injection of doxercalciferol (300 ng/kg, 3 times per week) or saline for 6 weeks. Body weight is monitored weekly during doxercalciferol treatment. Six weeks after doxercalciferol treatment insulin resistance is assessed using GTT and then mice are anesthetized and blood is collected to measure liver enzyme and AMH levels, ovary tissue is removed for histological analysis, total RNA is extracted for sequencing, and tumor size is measured with a digital caliper.

C=C1/C(=C\C=C2/CCC[C@]3(C)[C@@H]([C@H](C)/C=C/[C@H](C)C(C)C)CC[C@@H]23)C[C@@H](O)C[C@@H]1O [doxercalciferol]
Oil red-O staining, presence of adipocytes ([1]; 1 nM, 10 nM, day 14): presence of adipocytes in all treatment groups except the 100 nM group
cell morphology ([1]; 14 days): most cells dead
CCL5 cytokine production (SW872 cells): significantly downregulates
CCL18 cytokine production (SW872 cells): significantly downregulates
CXCL10 cytokine production (SW872 cells): significantly downregulates
MIF cytokine production (SW872 cells): significantly downregulates
TIMP-2 cytokine production (SW872 cells): significantly downregulates
TNF RII cytokine production (SW872 cells): significantly downregulates
TNF alpha cytokine production (SW872 cells): significantly downregulates
cell morphology (H295R cells [2]): most of the cells in the 100 nM doxercalciferol treatment group are dead
cell number (H295R cells [2]; vs other groups): significantly fewer cells
CYP11A1 gene expression (H295R cells [3]; 1 nM): not significantly changed
CYP17A1 gene expression (H295R cells [3]; 1 nM): significantly increased
CYP11A1 gene expression (H295R cells [3]; 10 nM): significantly increased
CYP17A1 gene expression (H295R cells [3]; 10 nM): not significantly changed
CYP11A1 gene expression (H295R cells [3]; 100 nM): significantly decreased
CYP17A1 gene expression (H295R cells [3]; 100 nM): significantly decreased
ALB, Mean [4]: 3.9 g/dL
ALP, Mean [4]: 76 U/L
ALT, Mean [4]: 66 U/L
AST, Mean [4]: 144 U/L
BUN, Mean [4]: 22 mg/dL
CA, Mean [4]: 12.9 mg/dL
NA+, Mean [4]: 149 mmol/L
TBIL, Mean [4]: 0.4 mg/dL
TP, Mean [4]: 4.7 g/dL
tumor growth (significant reduction, down to) [5]: 55.6%
